Where two headings read alike, the source gives them in different places.
Experiments:
LNCaP cells = experiment: LNCaP cell viability assay (CellTiter-Glo); format: cell-based; details: Homo sapiens, 72 h; LNCaP prostate cancer cell viability inhibition, 3 days, CellTiter-Glo (Table 3)
Method in brief: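 Three-day treatment of LNCaP cells (5000 per well) across a 12-point, 3-fold dilution series starting at 10 μM. ATP luminescence (CellTiter-Glo) relative to untreated controls gave dose-response curves fitted nonlinearly for IC50.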

P300 = P300 (Homo sapiens, UniProt Q09472); experiment: Immunoblotting of P300 protein levels in LNCaP or 22RV1 cells; format: cell-based; design: LNCaP or 22RV1 cells that express CBP/P300 proteins were treated with GNE-781 or the bivalent compounds; endogenous in cells; host or cells: LNCaP (clone FGC) or 22RV1 cells; details: read-out: Degradation (10 nM)
P300, sequence (Q09472 whole entry): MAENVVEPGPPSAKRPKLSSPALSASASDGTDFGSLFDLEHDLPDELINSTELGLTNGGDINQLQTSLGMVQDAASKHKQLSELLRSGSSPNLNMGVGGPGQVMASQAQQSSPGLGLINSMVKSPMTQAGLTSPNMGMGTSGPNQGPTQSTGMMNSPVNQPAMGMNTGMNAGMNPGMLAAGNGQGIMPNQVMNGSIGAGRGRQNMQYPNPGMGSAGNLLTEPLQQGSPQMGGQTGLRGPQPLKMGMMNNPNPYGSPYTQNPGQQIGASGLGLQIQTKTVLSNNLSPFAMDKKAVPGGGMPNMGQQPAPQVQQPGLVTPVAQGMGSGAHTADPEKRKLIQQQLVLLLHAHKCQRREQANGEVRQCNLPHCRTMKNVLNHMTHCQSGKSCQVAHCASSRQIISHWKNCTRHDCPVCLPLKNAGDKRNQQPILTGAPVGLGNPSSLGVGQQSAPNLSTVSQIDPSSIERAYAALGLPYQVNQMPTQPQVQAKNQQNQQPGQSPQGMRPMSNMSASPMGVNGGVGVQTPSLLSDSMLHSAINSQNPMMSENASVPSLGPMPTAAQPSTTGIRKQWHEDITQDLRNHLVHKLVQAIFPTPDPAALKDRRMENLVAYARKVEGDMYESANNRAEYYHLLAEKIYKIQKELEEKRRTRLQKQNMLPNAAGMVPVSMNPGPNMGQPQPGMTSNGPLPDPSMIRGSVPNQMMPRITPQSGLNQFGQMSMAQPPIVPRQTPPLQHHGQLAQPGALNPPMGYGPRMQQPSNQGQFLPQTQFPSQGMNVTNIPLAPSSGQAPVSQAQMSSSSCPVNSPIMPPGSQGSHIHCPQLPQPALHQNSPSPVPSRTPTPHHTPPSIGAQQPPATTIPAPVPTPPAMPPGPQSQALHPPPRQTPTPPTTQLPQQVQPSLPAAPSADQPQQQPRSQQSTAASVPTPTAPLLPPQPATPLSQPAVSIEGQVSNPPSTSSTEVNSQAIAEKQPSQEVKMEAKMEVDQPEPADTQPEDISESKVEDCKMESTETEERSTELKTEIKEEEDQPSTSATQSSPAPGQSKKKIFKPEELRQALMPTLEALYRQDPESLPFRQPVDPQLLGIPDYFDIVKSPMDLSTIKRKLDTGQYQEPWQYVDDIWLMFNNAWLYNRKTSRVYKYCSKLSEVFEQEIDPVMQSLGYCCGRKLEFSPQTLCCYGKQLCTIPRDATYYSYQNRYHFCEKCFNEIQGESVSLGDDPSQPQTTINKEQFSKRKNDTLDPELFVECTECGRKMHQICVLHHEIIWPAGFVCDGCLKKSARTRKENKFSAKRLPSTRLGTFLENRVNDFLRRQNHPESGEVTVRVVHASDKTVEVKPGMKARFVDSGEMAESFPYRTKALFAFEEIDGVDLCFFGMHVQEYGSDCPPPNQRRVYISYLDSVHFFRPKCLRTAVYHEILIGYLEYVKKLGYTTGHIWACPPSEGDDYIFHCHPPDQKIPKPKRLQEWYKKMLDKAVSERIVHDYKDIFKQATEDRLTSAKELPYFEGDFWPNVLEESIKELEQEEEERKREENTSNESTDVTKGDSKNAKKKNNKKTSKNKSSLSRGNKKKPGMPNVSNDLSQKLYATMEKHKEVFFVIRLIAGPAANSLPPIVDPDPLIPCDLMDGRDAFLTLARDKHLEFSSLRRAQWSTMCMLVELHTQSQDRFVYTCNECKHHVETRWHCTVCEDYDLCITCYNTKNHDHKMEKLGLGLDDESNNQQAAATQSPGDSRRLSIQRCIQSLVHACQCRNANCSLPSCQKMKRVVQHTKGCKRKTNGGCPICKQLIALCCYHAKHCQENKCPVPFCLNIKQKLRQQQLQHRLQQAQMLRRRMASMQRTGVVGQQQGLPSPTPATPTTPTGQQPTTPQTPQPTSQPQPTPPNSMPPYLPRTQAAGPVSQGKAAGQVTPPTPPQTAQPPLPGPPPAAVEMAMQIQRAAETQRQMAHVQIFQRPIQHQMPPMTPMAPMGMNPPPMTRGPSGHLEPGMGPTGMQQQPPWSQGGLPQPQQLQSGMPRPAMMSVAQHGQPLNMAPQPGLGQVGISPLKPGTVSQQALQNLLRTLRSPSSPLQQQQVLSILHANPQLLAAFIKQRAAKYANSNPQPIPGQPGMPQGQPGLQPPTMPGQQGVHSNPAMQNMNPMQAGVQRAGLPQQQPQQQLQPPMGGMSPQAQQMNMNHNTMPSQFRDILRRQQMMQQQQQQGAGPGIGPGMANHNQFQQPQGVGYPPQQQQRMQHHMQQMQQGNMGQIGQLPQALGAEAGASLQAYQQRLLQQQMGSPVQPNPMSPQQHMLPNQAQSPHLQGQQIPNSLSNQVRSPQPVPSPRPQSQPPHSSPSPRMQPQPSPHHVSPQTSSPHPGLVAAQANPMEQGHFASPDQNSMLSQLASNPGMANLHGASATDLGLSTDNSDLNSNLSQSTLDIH
Method in brief: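 P300/CBP levels quantified by chemiluminescent immunoblot band densitometry, normalized against tubulin or vinculin loading controls. Lysates came from LNCaP or 22RV1 cells exposed to compounds or DMSO vehicle for indicated times.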

[1] = percentage of inhibition of p300 at 10 nM (Table 3)

Row | SMILES | IC50 (LNCaP cells) | inhibition at 0.01 µM (P300; [1]) | inhibition at 0.01 µM (P300)
1 | CC(=O)N1CCc2c(c(N3CCCc4cc(-c5cnn(C)c5)c(C(F)F)cc43)nn2C2CCN(CCCCCCCc3cccc4c3C(=O)N(C3CCC(=O)NC3=O)C4=O)CC2)C1 (stereo not drawn) [P-132, 4-(7-(4-(5-Acetyl-3-(7-(difluoromethyl)-6-(1-methyl-1H-pyrazol-4-yl)-3,4-dihydroquinolin-1(2H)-yl)-4,5,6,7-tetrahydro-1H-pyrazolo[4,3-c]pyridin-1-yl)piperidin-1-yl)heptyl)-2-(2,6-dioxopiperidin-3-yl)isoindoline-1,3-dione] | 16.8 nM | 20 to 50% | 
2 | CC(=O)N1CCc2c(c(N3CCCc4cc(-c5cnn(C)c5)c(C(F)F)cc43)nn2C2CCN(C(=O)CCCCCCCn3c(=O)n(C4CCC(=O)NC4=O)c4ccccc43)CC2)C1 (stereo not drawn) [P-135, 3-(3-(8-(4-(5-acetyl-3-(7-(difluoromethyl)-6-(1-methyl-1H-pyrazol-4-yl)-3,4-dihydroquinolin-1(2H)-yl)-4,5,6,7-tetrahydro-1H-pyrazolo[4,3-c]pyridin-1-yl)piperidin-1-yl)-8-oxooctyl)-2-oxo-2,3-dihydro-1H-benzo[d]imidazol-1-yl)piperidine-2,6-dione] | 0.7 nM |  | > 80%
3 | CC(=O)N1CCc2c(c(N3CCCc4cc(-c5cnn(C)c5)c(C(F)F)cc43)nn2C2CCN(CCN3CCOC(CNc4cccc5c4C(=O)N(C4CCC(=O)NC4=O)C5=O)C3)CC2)C1 (stereo not drawn) [P-142] | 0.3 nM | > 80% | 
4 | CC(=O)N1CCc2c(c(N3CCCc4cc(-c5cnn(C)c5)c(C(F)F)cc43)nn2C2CCN(CCN3CCC(CNc4cccc5c4C(=O)N(C4CCC(=O)NC4=O)C5=O)CC3)CC2)C1 (stereo not drawn) [P-143, 4-(((1-(2-(4-(5-acetyl-3-(7-(difluoromethyl)-6-(1-methyl-1H-pyrazol-4-yl)-3,4-dihydroquinolin-1(2H)-yl)-4,5,6,7-tetrahydro-1H-pyrazolo[4,3-c]pyridin-1-yl)piperidin-1-yl)ethyl)piperidin-4-yl)methyl)amino)-2-(2,6-dioxopiperidin-3-yl)isoindoline-1,3-dione] | 1.5 nM |  | > 80%
5 | CC(=O)N1CCc2c(c(N3CCCc4cc(-c5cnn(C)c5)c(C(F)F)cc43)nn2C2CCN(CC3CCN(CCCc4cccc5c4C(=O)N(C4CCC(=O)NC4=O)C5=O)CC3)CC2)C1 (stereo not drawn) [P-149, 4-(3-(4-((4-(5-acetyl-3-(7-(difluoromethyl)-6-(1-methyl-1H-pyrazol-4-yl)-3,4-dihydroquinolin-1(2H)-yl)-4,5,6,7-tetrahydro-1H-pyrazolo[4,3-c]pyridin-1-yl)piperidin-1-yl)methyl)piperidin-1-yl)propyl)-2-(2,6-dioxopiperidin-3-yl)isoindoline-1,3-dione] | 11.4 nM | > 80% | 

Continued by falling IC50 (LNCaP cells), values first:

Row | IC50 (LNCaP cells) | inhibition at 0.01 µM (P300; [1]) | SMILES | inhibition at 0.01 µM (P300)
6 | 191 nM | > 80% | CC(=O)N1CCc2c(c(N3CCCc4cc(-c5cnn(C)c5)c(C(F)F)cc43)nn2C2CCN(CC3CCN(CC#Cc4cccc5c4C(=O)N(C4CCC(=O)NC4=O)C5=O)CC3)CC2)C1 (stereo not drawn) [P-150, 4-(3-(4-((4-(5-Acetyl-3-(7-(difluoromethyl)-6-(1-methyl-1H-pyrazol-4-yl)-3,4-dihydroquinolin-1(2H)-yl)-4,5,6,7-tetrahydro-1H-pyrazolo[4,3-c]pyridin-1-yl)piperidin-1-yl)methyl)piperidin-1-yl)prop-1-yn-1-yl)-2-(2,6-dioxopiperidin-3-yl)isoindoline-1,3-dione] | 
7 | 156 nM | 50 to 80% | CC(=O)N1CCc2c(c(N3CCCc4cc(-c5cnn(C)c5)c(C(F)F)cc43)nn2C2CCN(C(=O)CN3CCOC(CNc4cccc5c4C(=O)N(C4CCC(=O)NC4=O)C5=O)C3)CC2)C1 (stereo not drawn) [P-141, 4-(((4-(2-(4-(5-Acetyl-3-(7-(difluoromethyl)-6-(1-methyl-1H-pyrazol-4-yl)-3,4-dihydroquinolin-1(2H)-yl)-4,5,6,7-tetrahydro-1H-pyrazolo[4,3-c]pyridin-1-yl)piperidin-1-yl)-2-oxoethyl)morpholin-2-yl)methyl)amino)-2-(2,6-dioxopiperidin-3-yl)isoindoline-1,3-dione] | 
8 | 73.3 nM | > 80% | CC(=O)N1CCc2c(c(N3CCCc4cc(-c5cnn(C)c5)c(C(F)F)cc43)nn2C2CCN(C(=O)CCN3CCC(CCc4cccc5c4C(=O)N(C4CCC(=O)NC4=O)C5=O)CC3)CC2)C1 (stereo not drawn) [P-148, 4-(2-(1-(3-(4-(5-acetyl-3-(7-(difluoromethyl)-6-(1-methyl-1H-pyrazol-4-yl)-3,4-dihydroquinolin-1(2H)-yl)-4,5,6,7-tetrahydro-1H-pyrazolo[4,3-c]pyridin-1-yl)piperidin-1-yl)-3-oxopropyl)piperidin-4-yl)ethyl)-2-(2,6-dioxopiperidin-3-yl)isoindoline-1,3-dione] | 
9 | 14 nM | > 80% | CC(=O)N1CCc2c(c(N3CCCc4cc(-c5cnn(C)c5)c(C(F)F)cc43)nn2C2CCN(C(=O)CN3CCC(CCc4cccc5c4C(=O)N(C4CCC(=O)NC4=O)C5=O)CC3)CC2)C1 (stereo not drawn) [P-131, 4-(2-(1-(2-(4-(5-acetyl-3-(7-(difluoromethyl)-6-(1-methyl-1H-pyrazol-4-yl)-3,4-dihydroquinolin-1(2H)-yl)-4,5,6,7-tetrahydro-1H-pyrazolo[4,3-c]pyridin-1-yl)piperidin-1-yl)-2-oxoethyl)piperidin-4-yl)ethyl)-2-(2,6-dioxopiperidin-3-yl)isoindoline-1,3-dione] | 
10 | 4 nM | > 80% | CC(=O)N1CCc2c(c(N3CCCc4cc(-c5cnn(CC(=O)NCCCCCCCNc6ccc7c(c6)C(=O)N(C6CCC(=O)NC6=O)C7=O)c5)c(C(F)F)cc43)nn2C2CCOCC2)C1 (stereo not drawn) [P-133, 2-(4-(1-(5-acetyl-1-(tetrahydro-2H-pyran-4-yl)-4,5,6,7-tetrahydro-1H-pyrazolo[4,3-c]pyridin-3-yl)-7-(difluoromethyl)-1,2,3,4-tetrahydroquinolin-6-yl)-1H-pyrazol-1-yl)-N-(7-((2-(2,6-dioxopiperidin-3-yl)-1,3-dioxoisoindolin-5-yl)amino)heptyl)acetamide] | 
11 | 2 nM | > 80% | CC(=O)N1CCc2c(c(N3CCCc4cc(-c5cnn(C)c5)c(C(F)F)cc43)nn2C2CCN(C(=O)CCCC3CN(c4cccc5c4C(=O)N(C4CCC(=O)NC4=O)C5=O)C3)CC2)C1 (stereo not drawn) [P-146, 4-(3-(4-(4-(5-acetyl-3-(7-(difluoromethyl)-6-(1-methyl-1H-pyrazol-4-yl)-3,4-dihydroquinolin-1(2H)-yl)-4,5,6,7-tetrahydro-1H-pyrazolo[4,3-c]pyridin-1-yl)piperidin-1-yl)-4-oxobutyl)azetidin-1-yl)-2-(2,6-dioxopiperidin-3-yl)isoindoline-1,3-dione] | 
12 | 1.4 nM | > 80% | CC(=O)N1CCc2c(c(N3CCCc4cc(-c5cnn(C)c5)c(C(F)F)cc43)nn2C2CCN(C(=O)CN3CCC(CCCc4cccc5c4C(=O)N(C4CCC(=O)NC4=O)C5=O)CC3)CC2)C1 (stereo not drawn) [P-147, 4-(3-(1-(2-(4-(5-acetyl-3-(7-(difluoromethyl)-6-(1-methyl-1H-pyrazol-4-yl)-3,4-dihydroquinolin-1(2H)-yl)-4,5,6,7-tetrahydro-1H-pyrazolo[4,3-c]pyridin-1-yl)piperidin-1-yl)-2-oxoethyl)piperidin-4-yl)propyl)-2-(2,6-dioxopiperidin-3-yl)isoindoline-1,3-dione] | 
